{"source": "paper PMC7200681", "about": "“The calcitonin-like system is an ancient regulatory system of biomineralization” (Scientific Reports, 2020)", "parameters_in_all_cases": "species or system Mytilus galloprovincialis", "key": {"mussel mantle edge": {"system": "mussel mantle edge", "assay": "Ex-vivo incubation of mantle edge fragments, calcium quantification by MP-AES", "details": "4 h at 19-20 °C; CALCIIa 10 μM or ouabain 2 mM alone; MP-AES at 393.366 nm; mean ± SEM; control 400.67 ±13.83 ppm; SEM", "procedure": "Figure 7 Effect of the mussel calcitonin-like peptide on (A) calcium (ppm) concentration in the mantle edge and (B) calcium uptake by mantle cells of the Mediterranean mussel. (A) The quantity of calcium (ppm) present in the mantle edge after mussel CALCIIa peptide incubation was measured using a Microwave Plasma-Atomic Emission Spectrometer (MP-AES, Agilent) at 393.366 nm. A standard curve for calcium was performed before analysing the samples. In vitro mantle assays with CALCIIa peptide and with ouabain and control (culture medium and mantle) were repeated on at least 3 independent occasions. For each assay at least ten replicates were performed and the mantle edge distal to the umbo was used (one mantle fragment per replica). Prism GraphPad v5 software was used to assess the significance of differences between the groups using a One-way Anova and Tukey’s multiple comparison test. […] C - control (no peptide or ouabain); P - peptide (10 μM); O - ouabain (2 mM), OP - ouabain (2 mM) and peptide (10 μM); PreOP - pre -stimulation for 1 hour with the peptide followed by 4 hours incubation with OP. (B) Digital photographs of the mussel mantle cells in the presence (CALCIIa, 10 μM) or absence (control) of the mussel CALCIIa peptide. Calcium ions were stained with 50 mM of Calcein (green) and cell nuclei (blue) with DAPI (Acros Organics). An increase in cellular fluorescence represents an increase in calcium uptake. Fluorescence of the CALCIIa peptide stimulated cells was 1.9 times higher than the control. The average mantle cell size was 3–4 μm and fluorescent images were taken using a Leica DM IL microscope coupled to a Visicam HDMI 6 digital camera and photographs were analysed using ImageJ software (v. 1.52a) to calculate the fluorescence intensity and for image overlay. The scale bar is indicated.\nThe posterior mantle edge region of the Mediterranean mussel was collected and washed in culture medium. The composition of the culture medium was as described in[91] […]"}, "[1]": {"system": "alpha-carbonic anhydrase (CA) esterase activity in mussel mantle edge", "assay": "Esterase (carbonic anhydrase) activity in mantle after ex-vivo incubation", "details": "after exposure to CALCIIa 10 μM or ouabain 2 mM; 4-Nitrophenyl acetate substrate; n = 6", "procedure": "(§1) (A) Esterase activity and (B) Acid phosphatase activity. Enzyme activity was quantified in protein extracts from the mantle of control or challenged samples that were incubated with the mussel CALCIIa peptide. Values represent the mean ± SEM (CA, n = 6 and TRAP, n = 10) performed in duplicate. Prism GraphPad v5 software was used to assess the significance of the differences between the groups using One-way Anova and Tukey’s multiple comparison test. […] C - control; P - peptide (10 μM); O - ouabain (2 mM), OP - ouabain (2 mM) and peptide (10 μM); PreOP - pre stimulation for 1 hour with the peptide and 4 hours incubation with OP.\n(§2) The posterior mantle edge region of the Mediterranean mussel was collected and washed in culture medium. The composition of the culture medium was as described in[91] […] The culture medium was supplemented with heat inactivated 2% FBS (SIGMA-ALDRICH), 0.1% penicillin: streptomycin antibiotic mix (10.000 U:10 mg/ml, SIGMA-ALDRICH) and 250 μg/ml sterile filtered 1:100 amphotericin B solution (Sigma-Aldrich). The posterior mantle edge from mussels was collected into culture medium and cut into fragments of approximately 1–2 mm in length. […]\nEsterase activity in the mussel posterior mantle edge (n = 6/experimental group) was quantified using a colorimetric assay that measures the conversion of the substrate 4-Nitrophenyl acetate to p-nitrophenolate[92]. […]"}, "[2]": {"system": "acid phosphatase (AP) activity in mussel mantle edge", "assay": "Acid phosphatase (TRAP) activity in mantle after ex-vivo incubation", "details": "after exposure to CALCIIa 10 μM or ouabain 2 mM; TRAP assay, pNPP, pH 5.3; p < 0.05", "procedure": "as §1, §2\nAcid phosphatase activity of the mantle protein extracts (n = 6/ group) was determined using 96 well-plates (GREINER, Germany) and a tartrate resistant acid phosphatase (TRAP) assay as described in[93]."}}, "data": [{"smiles": "C[C@@H]1O[C@@H](O[C@H]2C[C@@H](O)[C@]3(CO)[C@H]4[C@H](O)C[C@]5(C)[C@@H](C6=CC(=O)OC6)CC[C@]5(O)[C@@H]4CC[C@]3(O)C2)[C@H](O)[C@H](O)[C@H]1O", "note": "[Ouabain, ouabain]", "values": [{"measurement": "Calcium in the mantle edge after incubation", "setting": "mussel mantle edge", "result": "588.71 ± 42.92", "unit": "ppm"}, {"measurement": "CA esterase activity in mantle edge (in words)", "setting": "[1]", "result": "neither of the bivalve CALCs or ouabain modified"}, {"measurement": "Acid phosphatase (AP) activity in mantle edge compared to control (in words)", "setting": "[2]", "result": "significantly decreased"}]}]}
